Active and inactive are the calls of the source.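 The calls were made as follows: active = fitted curve reaches 40% activation at a concentration no higher than the top valid tested dose; inconclusive = flat fit between 30% and 70% activation, or poor fit; inactive = uptake decrease, flat fit within 30% of zero, the rest.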
molecular target: Scavenger receptor class B member 1 (Mus musculus) (UniProt Q61009); test: enhancers of DiI-HDL lipid transfer via SR-BI – cell-based, ldlA[mSR-BI] CHO, DiI fluorescence, cherry-pick, dose response (AID 602191); conditions: ldlA[mSR-BI] CHO cells, 3 h, at 35 µM (top of the series);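 also: cell fluorescence from internalized DiI-labeled HDL after washing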;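 as to AC40: potency of activators raising HDL uptake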;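 as to activation (HDL uptake increase): 0% = median of DMSO wells and 100% = twice the DMSO signal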
Sequence (Q61009 whole entry, looked up): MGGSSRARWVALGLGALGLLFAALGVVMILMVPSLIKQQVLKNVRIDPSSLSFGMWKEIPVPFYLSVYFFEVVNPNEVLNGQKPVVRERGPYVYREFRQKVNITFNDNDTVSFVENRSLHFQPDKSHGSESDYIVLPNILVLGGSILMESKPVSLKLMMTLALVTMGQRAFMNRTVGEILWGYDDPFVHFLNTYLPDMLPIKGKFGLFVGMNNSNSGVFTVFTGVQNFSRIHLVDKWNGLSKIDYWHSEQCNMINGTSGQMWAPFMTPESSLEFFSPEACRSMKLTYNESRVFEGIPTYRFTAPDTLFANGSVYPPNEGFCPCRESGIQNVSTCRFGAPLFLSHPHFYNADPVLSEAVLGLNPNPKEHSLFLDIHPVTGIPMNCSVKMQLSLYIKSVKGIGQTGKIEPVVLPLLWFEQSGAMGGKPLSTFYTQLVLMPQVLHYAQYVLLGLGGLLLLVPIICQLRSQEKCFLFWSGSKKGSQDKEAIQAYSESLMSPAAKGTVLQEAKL

| Structure (SMILES) | activation (HDL uptake increase) |
| --- | --- |
| CC(C)CCNCC(=O)NC(c1ccccc1)c1ccccc1 | -2.56% (inactive) |
| Cc1cccc(N2C(=O)N3[C@H](c4ccc(Br)cc4)[C@@H]4C(=O)N(C(C)(C)C)C(=O)[C@@H]4[C@]3(C)C2=O)c1 | 6.14% (inactive) |
| Cc1ccc(C(=O)NCCc2cccs2)cc1 | 1.64% (inactive) |
| CCC1C(=O)NCCN1C(=O)c1ccc(OC)c(OC2CCN(C(C)=O)CC2)c1 (configuration not stated) | -6.7% (inactive) |
| CCN(CC(=O)Nc1c(F)cccc1F)C(=O)CCCc1nc2ccccc2c(=O)[nH]1 | -5.94% (inactive) |
| NNC(=O)CNC(c1ccccc1)c1cc(Br)ccc1NC(=O)CCN1CCOCC1 (configuration not stated) | -9.57% (inactive) |
| CCOC(=O)N1CCC(N2C(=O)c3ccccc3C2Nc2cc(OC)c(OC)c(OC)c2)CC1 (configuration not stated) | 13% (inactive) |
| CCN1CCN(C(=O)CCc2nc3ccccc3c(=O)[nH]2)CC1 | 9.34% (inactive) |
| CC(C)(C)OC(=O)C[C@H]1C/C=C\C[C@H](CC(=O)NCCO)C(=O)NCCOC1=O | -2.75% (inactive) |
| COc1cccc(CN2CCNC(=O)C2CC(=O)NCCCn2ccnc2)c1 (configuration not stated) | 13% (inactive) |
| Cc1cccc(C)c1NC(=O)N1C2CCCC1CC(NC(=O)C(C)(C)C)C2 (configuration not stated) | 5.39% (inactive) |
| O=C(CC1C(=O)NCCN1Cc1ccc(Cl)c(F)c1)NC1CCCCC1 (configuration not stated) | -11.9% (inactive) |
| COc1cc(C(CCN2CCCC(C)C2)c2c(OC)cc(OC)c3c(-c4ccccc4)cc(=O)oc23)cc(OC)c1OC (configuration not stated) | -1.55% (inactive) |
| O=C(Nc1cccc(S(=O)(=O)NC2=NCCC2)c1)c1ccc(F)cc1F | -14.5% (inactive) |
| COc1ccc(Oc2nc(Oc3ccc(OC)cc3)nc(Oc3ccc(OC)cc3)n2)cc1 | -9.22% (inactive) |
| CNC[C@H]1Oc2c(NS(=O)(=O)c3ccc(OC)cc3)cccc2C(=O)N([C@H](C)CO)C[C@H]1C | 9.97% (inactive) |
| CCN1CCN(C(=O)/C(=C/c2ccco2)NC(=O)c2ccccc2)CC1 | -3.29% (inactive) |
| O=C(CNC(=O)c1ccco1)NCCCc1ccccc1 | -5.97% (inactive) |
| Cc1ccc(C(=O)NCCCN2CCOCC2)cc1S(=O)(=O)N1CCCCC1 | 9.53% (inactive) |
| Cc1noc(/C=C/N(C)C)c1S(=O)(=O)N1CCCC(C(=O)NCc2ccco2)C1 (configuration not stated) | -1.39% (inactive) |

| Structure (SMILES) | activation (HDL uptake increase) |
| --- | --- |
| COCCNC(=O)c1onc(CSc2cccc(OC)c2)c1C(=O)O | 11.9% (inactive) |
| CN(CC(=O)Nc1cccc(F)c1)C(=O)C1CC(=O)N(CCc2ccccc2)C1 (configuration not stated) | -13.2% (inactive) |
| C=C1[C@@H](OC(C)=O)[C@]23C[C@@H]1[C@@H](OC(C)=O)CC2[C@]12C4C[C@H]3[C@H]1N(CC)C[C@]4(C)CC[C@@H]2O (some centres not stated) | -3.15% (inactive) |
| O=C(CNC(=O)c1ccc(Cl)cc1)NCC(F)(F)F | -9.51% (inactive) |
| CN(C)S(=O)(=O)c1ccc(N2CCCC2)c(C(=O)NC2CCC(O)CC2)c1 (configuration not stated) | -3.29% (inactive) |
| Cc1ccc(S(=O)(=O)c2cc(OC(=O)c3ccco3)ccc2OC(=O)c2ccco2)cc1 | -6.59% (inactive) |
| COc1ccccc1C(=O)NCC(=O)NCc1cc(=O)n(C)c(=O)n1C | -3.18% (inactive) |
| Cc1c(NC(=O)c2ccc(Br)o2)cccc1C(=O)O | 5.98% (inactive) |
| O=C(CSc1nnc(Cc2cccs2)n1-c1ccccc1)NC1CCCCC1 | -15.7% (inactive) |
| O=C(OCCc1cc2ccccc2c(=O)o1)c1ccc(F)cc1 | -13.6% (inactive) |
| CCC[C@@H](CNC)NC[C@H](Cc1ccccc1)NCCCCc1ccccc1 | -3.49% (inactive) |
| Cc1ccccc1-n1nc2c(c1NC(=O)c1ccco1)CS(=O)(=O)C2 | -9.94% (inactive) |
| O=C(NCc1ccccn1)c1ccc(S(=O)(=O)Nc2ccccc2F)cc1 | 0.427% (inactive) |
| CC(C)(C)c1ccccc1NC(=O)CN1C(=O)NC2(CCCCCC2)C1=O | -12.4% (inactive) |
| O=C(COc1ccccc1Cc1ccccc1)Nc1cccnc1 | -14.9% (inactive) |
| CC(=O)N1C2CCCCC2S[C@H]2CCCCC21 (some centres not stated) | -4.16% (inactive) |
| O=C(CCSc1nnc(-c2ccco2)o1)Nc1ccc(Cl)cc1 | -2.84% (inactive) |
| Cc1c(C(=O)N(C)C(C)c2ccncn2)oc2c(F)cccc12 (configuration not stated) | -9.31% (inactive) |
| O=C(COc1ccc([N+](=O)[O-])cc1)NCc1cccnc1 | -4.82% (inactive) |
| C=CCn1c(SCC(=O)N(CC)C2CCS(=O)(=O)C2)nnc1-c1ccccc1 (configuration not stated) | -7.41% (inactive) |

| Structure (SMILES) | activation (HDL uptake increase) |
| --- | --- |
| Cc1ccc(C2/C(=C(\O)c3ccc4c(c3)OCCO4)C(=O)C(=O)N2Cc2cccnc2)cc1 (configuration not stated) | -7.31% (inactive) |
| CC(=O)Nc1ccc(SCC(=O)NC(=O)c2ccc(S(=O)(=O)N(C)C)cc2)cc1 | -3.69% (inactive) |
| CCCCCC1CC(CC(=O)O)C(=O)O1 (configuration not stated) | -5.76% (inactive) |
| CC(C)C[C@H](NC(=O)c1nc[nH]c1C(=O)NC1CCN(C(=O)OC(C)(C)C)CC1)C(=O)OC(C)(C)C | -3.21% (inactive) |
| CCCCC/C=C\C[C@H](O)/C=C/c1cccc(C[C@H](O)CCCCO)n1 | -14% (inactive) |
| CCCNC(=O)c1onc(CSc2ccc(F)cc2)c1C(=O)NCCOC | -11.4% (inactive) |
| Cc1ccc(C(C(=O)NC2CCCC2)N(Cc2ccc(F)cc2)C(=O)c2csnn2)o1 (configuration not stated) | 6.32% (inactive) |
| CCc1ccccc1NC(=O)CN1CCC(NC(=O)COC)CC1 | -1.48% (inactive) |
| COC(=O)CNC(=O)C12CC3CC(C1)CC(c1ccc(C)cc1)(C3)C2 | -4.62% (inactive) |
| COc1cccc(C(=O)COC(=O)CCC(=O)c2ccccc2)c1 | -0.792% (inactive) |
| CCc1ccc(C(=O)CN2C(=O)NC(C)(CCc3ccccc3)C2=O)cc1 (configuration not stated) | -8.25% (inactive) |
| COc1ccc(N2C(=O)C(CC(=O)Nc3ccc(F)cc3)N(CCc3cccs3)C2=O)cc1 (configuration not stated) | -4.44% (inactive) |
| CCN1C(=O)C(CC(=O)NC2CCCCC2)N(CC)C1=O (configuration not stated) | 7.58% (inactive) |
| COc1ccccc1NC(=O)CCC(=O)OCc1cccc([N+](=O)[O-])c1 | -10.7% (inactive) |
| CCn1nnnc1-c1ccc(OC)c(S(=O)(=O)Nc2ccc(C)c(C)c2)c1 | -11.8% (inactive) |
| O=C(CN1C(=O)NC2(CCCC2)C1=O)Nc1ccc(Cl)c(C(F)(F)F)c1 | -11.2% (inactive) |
| CCC(=O)Nc1ccc(C(=O)NNC(=O)c2cccs2)cc1 | -6.45% (inactive) |
| O=C(C[C@H]1C/C=C\C[C@@H](Cc2ccc(F)cc2)C(=O)OC[C@H]2CCCN2C1=O)N[C@H](CO)Cc1ccccc1 | 6.35% (inactive) |
| CCOc1cc(N2CCOCC2)c(OCC)cc1NC(=O)CSc1cccc[n+]1[O-] | -6.79% (inactive) |

same assay, conditions: ldlA[mSR-BI] CHO cells, DiI-HDL uptake fluorescence, 3 h

| Structure (SMILES) | AC40 |
| --- | --- |
| C[C@@H]1CN([C@@H](C)CO)C(=O)Cc2cc(NC(=O)Nc3ccc(C(F)(F)F)cc3)ccc2O[C@@H]1CN(C)S(=O)(=O)c1ccc(Cl)cc1 | 31.1 µM |
| COc1ccc(S(=O)(=O)N(C)C[C@H]2Oc3c(NC(=O)Nc4ccc(C(F)(F)F)cc4)cccc3C(=O)N([C@H](C)CO)C[C@@H]2C)cc1 | 33.2 µM |
| CCn1c(C(=O)O)c(CC(=O)NC2CCCCCC2)c2ccccc21 | > 35 µM (inactive) |

Source: PubChem BioAssay AID602191 (Broad Institute, 2012)
